Assay [1] has as its target T1, LTB4 specific binding sites of HL-60 cells (Homo sapiens, UniProt Q15722).
T1 construct: endogenous in cells; host or cells: differentiated HL-60 cells, intact
Description: 3H-LTB4 specific binding to HL-60 cells. The following applies: competitor 300 nM, differentiated HL-60 cells.

In assay [2] the test system is human skin fibroblasts. Kind of assay: Fibroblast proliferation, MTT assay. The format is cell-based. The settings on record: Homo sapiens, Skin fibroblast; 100 nM, n=3. The source says:
Human type II epithelial A549 cells from human lung carcinoma and normal human skin fibroblast (breast) were obtained from the American Type Culture Collection (Rockville, Md.). The A549 cell line originated from a human alveolar cell carcinoma and was a useful cell line because it was easily assessable and could be maintained in culture without contaminating tissue macrophages. (Lieber, M., et al (1976) A continuous tumor-cell line from a human lung carcinoma with properties of type II alveolar epithelial cells. Int. J Cancer Fibroblasts were utilized within their limited window of viability and their passage numbers were recorded (results are reported for cells from 3-5 passages). Epithelial A549 cells were seeded into T-75 cm^2 tissue culture flasks and maintained in F-12K medium supplemented with 10% heat-inactivated FBS, penicillin (50 U/mL) and streptomycin (50 (g/mL). Human PMN from healthy donors who had not taken ASA or other medications for at least two weeks were obtained by Ficoll-Hypaque gradient centrifugation and dextran sedimentation, (Böyum A. (1968) Isolation of mononuclear cells and granulocytes from human blood. […] Viability of A549 cells and PMN was determined by their ability to exclude trypan blue and were 95±2 and 97±1%, respectively.
A microculture 3,(4,5-dimethylthiazoyl-2-yl) 2,5 (diphenyl-tetrazolium bromide) (MTT) assay, (Marshall, N. J., et al. (1995) A critical assessment of the use of microculture tetrazolium assays to measure cell growth and function. Growth Regul. 5: 69-84.), was used to examine the actions of LXs and other eicosanoids on cell proliferation. A549 cells and fibroblasts from exponential-phase maintenance cultures were counted and dispensed within replicate 96-well culture plates in 100 μl volumes of medium (˜2000 cells/well). […] Dye solution was aspirated, wells were washed once with HBSS and dye taken up by the cells was extracted in 100 μl of isopropyl alcohol:1 N HCl (96:4, v/v) and quantitated at 570 nm using a microplate reader (Molecular Devices, Menlo Park, Calif.). […]
(In general: Tetrazolium assays rely on reduction of a dye to a coloured formazan, in cell work by metabolically active cells.)

For orientation: inhibition means the relative decrease from the control value, in per cent. Low readings indicate a response near the control, high ones a response far below the control.

Each structure is given as a SMILES string.

T1 sequence (Q15722 whole entry): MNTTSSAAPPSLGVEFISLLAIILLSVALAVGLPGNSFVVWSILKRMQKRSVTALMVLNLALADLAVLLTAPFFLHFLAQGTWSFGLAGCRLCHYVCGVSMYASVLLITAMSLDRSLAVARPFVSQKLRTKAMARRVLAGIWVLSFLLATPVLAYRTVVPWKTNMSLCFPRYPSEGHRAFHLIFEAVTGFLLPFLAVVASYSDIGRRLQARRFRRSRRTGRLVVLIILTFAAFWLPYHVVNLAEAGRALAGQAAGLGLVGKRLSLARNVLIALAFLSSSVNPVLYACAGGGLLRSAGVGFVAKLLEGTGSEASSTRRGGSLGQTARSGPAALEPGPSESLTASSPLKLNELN

Regarding `CCCCC[C@H](O)/C=C/C=C\C=C\C=C\[C@@H](O)[C@@H](O)CCCC(=O)O` [LXA4, (5S, 6R, 15S)-trihydroxy-7E, 9E, 11Z, 13E-eicosatetraenoic acid], the “competition with 3H-LTB4 (0.3 nM) binding” value in assay [1] is given as “unable to compete”. In assay [2], this molecule displayed an inhibition at 0.1 µM of 10.7%.

(Values after patent US20030134901A1, “Lipoxin compounds and their use in treating cell proliferative disorders” (priority 1993, published 2003).)
